Reference: US6326395A, “Antifungal activity of dicationic molecules” (priority 1999, dated 2001)
Converted amounts (≈) assume the structure as drawn. Where a name gives a salt, the structure may show the parent alone. Read-outs that look alike come from different tables or passages of the source.

Columns and labels:
Candida albicans = test: in vitro antifungal susceptibility testing (MIC, MFC; broth macrodilution), Tables 1-7; assay type: cell-based; conditions: for MIC: read-out: MIC80 (Minimum inhibitory concentration 80%); for MFC: read-out: MFC (Minimum fungicidal concentration)
Description: (§1) The fungi that were employed included two reference strains, C. neoformans var. neoformans H99 and C. albicans A39 and the following clinical isolates: (1) two strains of fluconazole-resistant C. neoformans var. neoformans (135.95 and 114.96); (2) two strains of C. neoformans var. gattii (119.95 and 114.95); (3) two strains of fluconazole-resistant C. albicans (102.96 and 103.96); and (4) one strain each of Torulopsis glabrata (142.91), Candida parapsilosis (111.96), Candida krusei (132.91), C. tropicalis (110.96), Candida lusitaniae (111.92), Fusarium solani (152.89), Aspergillus fumigatus (168.95), and Aspergillus flavus (112.96). Antifungal susceptibility testing was performed using an RPMI-1640 medium (Sigma Chemical Co., St. Louis, Mo.) with glutamine, without sodium bicarbonate, and buffered at pH 7.0 with 0.165 M morpholine-propanesulfonic acid (MOPS).
(§2) In vitro susceptibility testing in the form of Minimum Inhibitory Concentration (MIC) experiments were performed using the broth macrodilution method according to the recommendations of the National Committee for Clinical Laboratory Standards (see 1995 manual). The only difference compared to the standardized procedure was the choice of drug dilutions ranging from 100 to 0.09 μg/ml. Briefly, this procedure specifies an inoculum grown at 35° C. and adjusted to a concentration of 0.5-2.5×10^3 CFU/ml with an incubation of the test performed at 35° C. and reading at 48 hours for all yeasts except for C. neoformans which is interpreted at 72 hr.
(§3) Minimum Fungicidal Concentration (MFC) experiments were adapted from a method by McGinnis (McGinnis, M. R., (1980) "Susceptibility testing and bioassay procedure", p. 431, Academic Press, Inc., New York). Briefly, 10 μl aliquots from tubes with growth inhibition were plated onto Sabouraud agar plates.
(§4) The fungi that were employed included two quality control reference strains, C. neoformans var. neoformansH99 and C. albicans A39 and the following clinical isolates: (1) four strains of C. neoformans var. neoformans (167.95; 135.95; 114.96; and 133.95) of which three were fluconazole-resistant>64 μg/ml (135.95; 114.96; and 133.95); (2) two strains of C. neoformans var. gattii (119.95 and 114.95); (3) two strains of fluconazole-resistant>64 μg/ml C. albicans (102.96 and 103.96); and (4) one strain each of C. glabrata (142.91), Candida parapsilosis (111.96), Candida krusei (132.91), C. tropicalis (110.96), Candida lusitaniae (111.92), Fusarium solani (152.89), Aspergillus fumigatus (168.95), Rhizopus arrhizus (117.89), Paecilomyces lilacinus (137.90), and Aspergillus flavus (112.96). Antifungal susceptibility testing was performed using an RPMI-1640 medium (Sigma Chemical Co., St. Louis, Mo.) with glutamine, without sodium bicarbonate, and buffered at pH 7.0 with 0.165 M morpholinepropanesulfonic acid (MOPS).
as §3, with “p.431,” for “p. 431,”

Cryptococcus neoformans = test: as above; assay type: cell-based; conditions: for MIC: read-out: MIC80 (Minimum inhibitory concentration 80%); for MFC: read-out: MFC (Minimum fungicidal concentration)
Description: as §1, §2, §3, §4
as §3, with “p.431,” for “p. 431,”

Candida albicans A39 = test: antifungal susceptibility testing (MIC, MFC), extended spectrum; assay type: cell-based; conditions: Candida albicans, A39, read-out: MICs
Description: as §1, with “Antifungal susceptibility testing for compounds set forth in Examples 1-20 is discussed hereinbelow. The” for “The”
as §2
as §3, with “plates. The lowest drug concentration that yielded three or fewer yeasts colonies was recorded as the MFC.” for “plates.”
(§5) Antifungal susceptibility testing for compounds set forth in Examples 21-28 is discussed hereinbelow. […]
(§6) Minimum Fungicidal Concentration (MFC) experiments were adapted from a method by McGinnis (McGinnis, M. R., (1980) "Susceptibility testing and bioassay procedure", p.431, Academic Press, Inc., New York). […] The lowest drug concentration that yielded 3 or fewer yeasts colonies was recorded as the MFC. […]

C. albicans 102.96 = test: as above; assay type: cell-based, Candida albicans; conditions: Candida albicans, 102.96, read-out: fluconazole-resistant
Description: as §1, with “Antifungal susceptibility testing for compounds set forth in Examples 1-20 is discussed hereinbelow. The” for “The”
as §2
as §3, with “plates. The lowest drug concentration that yielded three or fewer yeasts colonies was recorded as the MFC.” for “plates.”
as §4, with “Antifungal susceptibility testing for compounds set forth in Examples 21-28 is discussed hereinbelow. The” for “The”
(§7) Minimum Fungicidal Concentration (MFC) experiments were adapted from a method by McGinnis (McGinnis, M. R., (1980) "Susceptibility testing and bioassay procedure", p.431, Academic Press, Inc., New York). Briefly, 10 μl aliquots from tubes with growth inhibition were plated onto Sabouraud agar plates. The lowest drug concentration that yielded 3 or fewer yeasts colonies was recorded as the MFC. Several drugs were also rescreened with a subculture of 100 μl aliquots from tubes with no growth and there was no change in MFC.

C. albicans 103.96 = test: as above; assay type: cell-based, Candida albicans; conditions: Candida albicans, 103.96, read-out: fluconazole-resistant
Description: as §1, with “Antifungal susceptibility testing for compounds set forth in Examples 1-20 is discussed hereinbelow. The” for “The”
as §2
as §7, with “p. 431,” for “p.431,”, “three” for “3”, “MFC.” for “MFC. Several drugs were also rescreened with a subculture of 100 μl aliquots from tubes with no growth and there was no change in MFC.”
as §4, with “Antifungal susceptibility testing for compounds set forth in Examples 21-28 is discussed hereinbelow. The” for “The”
as §7

C. neoformans 114.96 = test: as above; assay type: cell-based, C. neoformans var. neoformans; conditions: Cryptococcus neoformans, read-out: fluconazole-resistant
Description: as §1, with “Antifungal susceptibility testing for compounds set forth in Examples 1-20 is discussed hereinbelow. The” for “The”
as §2, with “The only difference compared to the standardized procedure was the choice of drug dilutions ranging from 100 to 0.09 μg/ml.” left out
as §6, with “p. 431,” for “p.431,”, “three” for “3”
as §6

C. neoformans 133.95 = test: as above; assay type: cell-based, C. neoformans var. neoformans; conditions: Cryptococcus neoformans, read-out: fluconazole-resistant
Description: as §5
as §2, with “The only difference compared to the standardized procedure was the choice of drug dilutions ranging from 100 to 0.09 μg/ml.” left out
as §6

C. neoformans 135.95 = test: as above; assay type: cell-based, C. neoformans var. neoformans; conditions: Cryptococcus neoformans, read-out: fluconazole-resistant
Description: as §5
as §2, with “The only difference compared to the standardized procedure was the choice of drug dilutions ranging from 100 to 0.09 μg/ml.” left out
as §6

[1] = test system: Cryptococcus neoformans H99; test: as above; assay type: cell-based, C. neoformans var. neoformans; conditions: Cryptococcus neoformans, H99, read-out: MICs
Description: as §1, with “Antifungal susceptibility testing for compounds set forth in Examples 1-20 is discussed hereinbelow. The” for “The”
as §2, with “The only difference compared to the standardized procedure was the choice of drug dilutions ranging from 100 to 0.09 μg/ml.” left out
as §6, with “p. 431,” for “p.431,”, “three” for “3”
as §6

[2] = Table 1, three or fewer colonies
[3] = Tables 2-7, three or fewer colonies

| Structure (SMILES) | MIC (Candida albicans; 35° C., reading at 48 hours) [µg/mL] | MIC (Cryptococcus neoformans; 35° C., 72 hr) [µg/mL] | MFC (Candida albicans; three or fewer colonies) [µg/mL] | MFC (Cryptococcus neoformans; [2]) [µg/mL] | other results |
| --- | --- | --- | --- | --- | --- |
| OC(Cn1cncn1)(Cn1cncn1)c1ccc(F)cc1F [Fluconazole, reference compound] |  |  |  |  | MIC (Candida albicans; 48 h): 0.25 µg/mL (≈ 0.816 µM); MIC80 (Minimum inhibitory concentration 80%) (Cryptococcus neoformans; 35° C., 72 hr): 2.0 µg/mL (≈ 6.53 µM); MIC (Cryptococcus neoformans; 72 h): 2 µg/mL (≈ 6.53 µM); MIC (Candida albicans A39): 0.25 µg/mL (≈ 0.816 µM); MIC (C. albicans 102.96): > 64 µg/mL; MIC (C. albicans 103.96): > 64 µg/mL; MIC (C. neoformans 114.96): > 64 µg/mL; MIC (C. neoformans 133.95): > 64 µg/mL; MIC (C. neoformans 135.95): > 64 µg/mL |
| C[C@@H]1[C@H](O)[C@@H](C)/C=C/C=C/C=C/C=C/C=C/C=C/C=C/[C@H](O[C@@H]2O[C@H](C)[C@@H](O)[C@H](N)[C@@H]2O)C[C@@H]2O[C@](O)(C[C@@H](O)C[C@@H](O)[C@H](O)CC[C@@H](O)C[C@@H](O)CC(=O)O[C@H]1C)C[C@H](O)[C@H]2C(=O)O [Amphotericin, reference compound] | 1 (≈ 1.08 µM) | 1 (≈ 1.08 µM) |  |  | MIC (Candida albicans A39): 1 µg/mL (≈ 1.08 µM); MIC [1]: 1 µg/mL (≈ 1.08 µM) |
| CN1CCN(c2ccc3nc(-c4ccc5nc(-c6ccc(O)cc6)[nH]c5c4)[nH]c3c2)CC1 [Compound 58] |  |  |  |  | MIC (Candida albicans; 48 h): 25 µg/mL (≈ 58.9 µM); MFC (Candida albicans): 50 µg/mL (≈ 118 µM); MIC (Cryptococcus neoformans; 72 h): 100 µg/mL (≈ 236 µM); MFC (Cryptococcus neoformans): > 100 µg/mL |
| CN(C)CCCN(C)C(=O)c1ccc(-c2ccc(-c3ccc(C(=O)N(C)CCCN(C)C)cc3)o2)cc1 [Compound 37] | > 100 | > 110 |  |  |  |
| CN1CCN=C1c1ccc(OCCCCOc2ccc(C3=NCCN3C)cc2)cc1 [Compound 15] | > 100 | > 100 | > 100 | > 100 |  |
| N=C(N)c1ccc(OCCOc2ccc(C(=N)N)cc2N)c(N)c1 [Compound 2] | 25 (≈ 76.1 µM) | > 100 |  |  |  |
| N=C(N)c1ccc2nc(CCc3nc4ccc(C(=N)N)cc4[nH]3)[nH]c2c1 [Compound 30] | 12.5 (≈ 36.1 µM) | 6.25 (≈ 18 µM) | 50 (≈ 144 µM) |  | MFC (Cryptococcus neoformans; [3]): 25 µg/mL (≈ 72.2 µM) |
| COc1cc(C(N)=NO)ccc1OCCCOc1ccc(C(N)=NO)cc1OC [Compound 6] | > 100 | > 100 |  |  |  |
| c1cc(-c2nc3ccc(C4=NCCCN4)cc3[nH]2)ccc1C1=NCCCN1 [Compound 63] | 50 (≈ 139 µM) | 25 (≈ 69.7 µM) | 100 (≈ 279 µM) |  | MFC (Cryptococcus neoformans; [3]): 50 µg/mL (≈ 139 µM) |
| N=C(N)c1ccc(-c2nc3ccc(C(=N)N)cc3[nH]2)cc1 [Compound 60] | 100 (≈ 359 µM) | 25 (≈ 89.8 µM) | > 100 |  | MFC (Cryptococcus neoformans; [3]): 50 µg/mL (≈ 180 µM) |

Continued, in another order:

| MIC (Candida albicans; 35° C., reading at 48 hours) [µg/mL] | MIC (Cryptococcus neoformans; 35° C., 72 hr) [µg/mL] | Structure (SMILES) | MFC (Candida albicans; three or fewer colonies) [µg/mL] | MFC (Cryptococcus neoformans; [2]) [µg/mL] | other results |
| --- | --- | --- | --- | --- | --- |
| 12.5 (≈ 33.6 µM) | 12.5 (≈ 33.6 µM) | COc1cc(C(=N)N)ccc1OCCCOc1ccc(C(=N)N)cc1OC [Compound 4] | 50 (≈ 134 µM) | 12.5 (≈ 33.6 µM) |  |
| 0.78 (≈ 2.06 µM) | 6.25 (≈ 16.5 µM) | c1cc(C2=NCCN2)ccc1OCCCCOc1ccc(C2=NCCN2)cc1 [Compound 14] | 1.56 (≈ 4.12 µM) | 12.5 (≈ 33 µM) |  |
| 0.19 (≈ 0.612 µM) | 1.56 (≈ 5.03 µM) | N=C(N)c1ccc(NCCCNc2ccc(C(=N)N)cc2)cc1 [Compound 8] | 0.39 (≈ 1.26 µM) | 6.25 (≈ 20.1 µM) |  |
| 1.56 (≈ 3.29 µM) | 0.78 (≈ 1.64 µM) | c1cc2nc(-c3ccc(-c4nc5ccc(C6=NCCCN6)cc5[nH]4)cc3)[nH]c2cc1C1=NCCCN1 [Compound 49] | 3.12 (≈ 6.57 µM) |  | MFC (Cryptococcus neoformans; [3]): 1.56 µg/mL (≈ 3.29 µM) |
| 0.78 | 0.78 | N=C(NC1CCCC1)c1ccc2nc(-c3ccc4oc(-c5nc6ccc(C(=N)NC7CCCC7)cc6[nH]5)cc4c3)[nH]c2c1 [Compound 56, 2,5-Bis[2-(5-N-cyclopentylamidino)benzimidazoyl]benzo[b]furan hydrochloride] | 0.78 |  | MFC (Cryptococcus neoformans; [3]): 0.78 µg/mL |
| 6.25 (≈ 17.5 µM) | 12.5 (≈ 35.1 µM) | N=C(N)c1ccc(OCCCCOc2ccc(C(=N)N)cc2N)c(N)c1 [Compound 13] |  | 50 (≈ 140 µM) |  |
| 3.12 (≈ 10.5 µM) | > 100 | N=C(N)c1ccc(OCCOc2ccc(C(=N)N)cc2)cc1 [Compound 1] | 100 (≈ 335 µM) |  |  |
| 3.12 (≈ 7.62 µM) | 1.56 (≈ 3.81 µM) | N=C(N)c1ccc(OCCCCCOc2ccc(C(=N)N)cc2Cl)c(Cl)c1 [Compound 17] | 6.25 (≈ 15.3 µM) | 3.12 (≈ 7.62 µM) |  |
